Assay results as given in BigSolDB 2.1.

CSc1nc2cc(Oc3cccc(Cl)c3Cl)c(Cl)cc2[nH]1
solubility (mole fraction)
Details	278.15 K	283.15 K	288.15 K	293.15 K	298.15 K	303.15 K	308.15 K	313.15 K	318.15 K
in 1,2-dichloroethane	0.00153	0.00187	0.00234	0.00289	0.00365	0.00429	0.00522	0.0063	0.00759
in acetonitrile	0.000629	0.000811	0.00106	0.00136	0.00164	0.00213	0.00264	0.0032	0.00396
in ethanol	0.00727	0.00878	0.0105	0.0126	0.0151	0.0181	0.0209	0.0244	0.0288
in ethyl acetate	0.0106	0.0125	0.0147	0.0173	0.0198	0.0232	0.0262	0.0306	0.0354
in ethyl formate	0.00501	0.00632	0.00795	0.00982	0.0121	0.0149	0.0177	0.0215	0.0258
in ethylene glycol	0.000323	0.000439	0.00057	0.000714	0.000934	0.0012	0.00152	0.00188	0.00231
in isobutanol	0.00455	0.00558	0.00698	0.00859	0.0109	0.0132	0.0161	0.0194	0.023
in isopropanol	0.00215	0.00272	0.00337	0.00411	0.00511	0.00619	0.00757	0.00914	0.0112
in methanol	0.00373	0.00458	0.00565	0.00691	0.00841	0.0101	0.0121	0.0144	0.017
in n-butanol	0.0221	0.0246	0.0273	0.0302	0.0333	0.0366	0.0399	0.0435	0.0473
in n-butyl acetate	0.0159	0.0181	0.0207	0.0232	0.0263	0.0298	0.0334	0.0372	0.0423
in n-pentyl acetate	0.0185	0.0214	0.0241	0.0277	0.0319	0.0361	0.0407	0.0453	0.0511
in n-propanol	0.00915	0.0108	0.0125	0.0146	0.017	0.0198	0.0229	0.0262	0.0301
in n-propyl acetate	0.0124	0.0146	0.017	0.0196	0.0228	0.0258	0.0299	0.0338	0.039
